From US20230150974A1 (Foghorn Therapeutics Inc., priority 2020, published 2023) come the findings set out here.

A value given as a limit tells only on which side of the number the result lay.

One assay has as its target T1, HiBiT-BRM (Homo sapiens, UniProt P51531).
T1 construct: expressed in transfected cells
In words: HiBiT-BRM cell-based degradation assay (Nano-Glo HiBiT Lytic Detection). To be noted: HeLa cells expressing HiBiT-BRM, 24 h; for DC50: read-out: BRM HiBit Degradation IC50. The method, then: (§1) Procedure: A stable HeLa cell line expressing HiBiT-BRM was generated. On day 0, 5000 cells were seeded in 40 μL of media into each well of 384-well cell culture plates. […] Subsequently plates were incubated for 24 h in a standard tissue culture incubator and equilibrated at room temperature for 15 minutes. Nano-Glo HiBiT Lytic Detection System (Promega N3050) reagent was freshly prepared and 20 ul was added to each well. Upon addition of this LgBit-containing reagent, the HiBiT and LgBiT proteins associate to form the luminescent NanoBiT luciferase. The plates were shaken for 10 minutes at room temperature and the bioluminescence read using an EnVision plate reader (PerkinElmer).
(§2) The degradation % was calculated using the following formula: % degradation=100%−100%×(LumSample−LumLC)/(LumHC−LumLC). DMSO treated cells are employed as High Control (HC) and 2 μM of a known BRM/BRG1 degrader standard treated cells are employed as Low Control (LC).
A general note: The HiBiT peptide binds its large partner to form an active luciferase.

A further assay deals with T2, HiBit-BRG1 (Homo sapiens, UniProt P51532).
T2 construct: expressed in transfected cells
Put plainly: HiBit-BRG1 cell-based degradation assay (Nano-Glo HiBiT Lytic Detection). To be noted: HeLa cells expressing HiBit-BRG1 and LgBit, 24 h; for DC50: read-out: BRG1 HiBit Degradation IC50; for Dmax: read-out: BRG1 HiBit Degradation Maximum (%). How it is done: as §1
For measurement of BRG1 degradation, a stable HeLa cell line expressing HiBit-BRG1 and LgBit was generated. The same protocol as above was then followed.
as §2

T1 sequence (P51531 whole entry): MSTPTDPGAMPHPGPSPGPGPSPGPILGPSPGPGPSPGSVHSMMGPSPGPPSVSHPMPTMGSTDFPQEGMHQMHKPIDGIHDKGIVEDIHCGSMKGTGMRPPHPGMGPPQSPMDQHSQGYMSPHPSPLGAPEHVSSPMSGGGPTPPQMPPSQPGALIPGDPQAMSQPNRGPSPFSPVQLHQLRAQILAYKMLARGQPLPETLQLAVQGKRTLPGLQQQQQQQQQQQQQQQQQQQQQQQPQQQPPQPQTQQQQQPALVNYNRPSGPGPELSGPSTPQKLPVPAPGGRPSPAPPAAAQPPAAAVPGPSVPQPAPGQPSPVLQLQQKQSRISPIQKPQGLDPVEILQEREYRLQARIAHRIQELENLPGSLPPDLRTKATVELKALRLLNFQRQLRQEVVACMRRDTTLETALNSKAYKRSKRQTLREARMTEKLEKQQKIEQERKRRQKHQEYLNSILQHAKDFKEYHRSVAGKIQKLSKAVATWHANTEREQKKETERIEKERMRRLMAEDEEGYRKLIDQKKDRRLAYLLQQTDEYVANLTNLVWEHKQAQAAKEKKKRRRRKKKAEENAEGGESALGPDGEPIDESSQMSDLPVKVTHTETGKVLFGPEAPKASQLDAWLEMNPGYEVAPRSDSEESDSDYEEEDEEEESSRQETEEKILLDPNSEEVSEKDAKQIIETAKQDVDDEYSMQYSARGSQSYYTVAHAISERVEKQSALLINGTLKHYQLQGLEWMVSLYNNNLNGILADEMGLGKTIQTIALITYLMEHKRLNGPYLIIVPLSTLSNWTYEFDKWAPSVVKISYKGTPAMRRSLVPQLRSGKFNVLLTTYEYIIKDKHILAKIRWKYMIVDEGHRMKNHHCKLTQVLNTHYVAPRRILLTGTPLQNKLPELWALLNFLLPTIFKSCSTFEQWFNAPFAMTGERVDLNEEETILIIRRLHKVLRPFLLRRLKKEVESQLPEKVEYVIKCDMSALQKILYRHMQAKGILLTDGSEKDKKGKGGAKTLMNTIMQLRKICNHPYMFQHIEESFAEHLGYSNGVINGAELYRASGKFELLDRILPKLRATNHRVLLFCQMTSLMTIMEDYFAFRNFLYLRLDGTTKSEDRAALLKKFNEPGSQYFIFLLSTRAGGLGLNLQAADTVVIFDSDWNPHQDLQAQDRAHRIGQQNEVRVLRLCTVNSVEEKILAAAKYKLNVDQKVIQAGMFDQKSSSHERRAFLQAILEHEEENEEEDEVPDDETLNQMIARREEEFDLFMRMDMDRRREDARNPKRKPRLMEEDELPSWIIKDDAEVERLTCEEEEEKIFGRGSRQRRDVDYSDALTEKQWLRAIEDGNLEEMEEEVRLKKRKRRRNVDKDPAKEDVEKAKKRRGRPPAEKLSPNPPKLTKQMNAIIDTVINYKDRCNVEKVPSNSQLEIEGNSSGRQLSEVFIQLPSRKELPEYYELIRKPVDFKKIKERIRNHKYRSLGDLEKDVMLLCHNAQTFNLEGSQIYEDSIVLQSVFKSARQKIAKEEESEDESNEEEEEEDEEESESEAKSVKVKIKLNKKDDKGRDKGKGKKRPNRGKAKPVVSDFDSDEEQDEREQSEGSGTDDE
T2 sequence (P51532 whole entry): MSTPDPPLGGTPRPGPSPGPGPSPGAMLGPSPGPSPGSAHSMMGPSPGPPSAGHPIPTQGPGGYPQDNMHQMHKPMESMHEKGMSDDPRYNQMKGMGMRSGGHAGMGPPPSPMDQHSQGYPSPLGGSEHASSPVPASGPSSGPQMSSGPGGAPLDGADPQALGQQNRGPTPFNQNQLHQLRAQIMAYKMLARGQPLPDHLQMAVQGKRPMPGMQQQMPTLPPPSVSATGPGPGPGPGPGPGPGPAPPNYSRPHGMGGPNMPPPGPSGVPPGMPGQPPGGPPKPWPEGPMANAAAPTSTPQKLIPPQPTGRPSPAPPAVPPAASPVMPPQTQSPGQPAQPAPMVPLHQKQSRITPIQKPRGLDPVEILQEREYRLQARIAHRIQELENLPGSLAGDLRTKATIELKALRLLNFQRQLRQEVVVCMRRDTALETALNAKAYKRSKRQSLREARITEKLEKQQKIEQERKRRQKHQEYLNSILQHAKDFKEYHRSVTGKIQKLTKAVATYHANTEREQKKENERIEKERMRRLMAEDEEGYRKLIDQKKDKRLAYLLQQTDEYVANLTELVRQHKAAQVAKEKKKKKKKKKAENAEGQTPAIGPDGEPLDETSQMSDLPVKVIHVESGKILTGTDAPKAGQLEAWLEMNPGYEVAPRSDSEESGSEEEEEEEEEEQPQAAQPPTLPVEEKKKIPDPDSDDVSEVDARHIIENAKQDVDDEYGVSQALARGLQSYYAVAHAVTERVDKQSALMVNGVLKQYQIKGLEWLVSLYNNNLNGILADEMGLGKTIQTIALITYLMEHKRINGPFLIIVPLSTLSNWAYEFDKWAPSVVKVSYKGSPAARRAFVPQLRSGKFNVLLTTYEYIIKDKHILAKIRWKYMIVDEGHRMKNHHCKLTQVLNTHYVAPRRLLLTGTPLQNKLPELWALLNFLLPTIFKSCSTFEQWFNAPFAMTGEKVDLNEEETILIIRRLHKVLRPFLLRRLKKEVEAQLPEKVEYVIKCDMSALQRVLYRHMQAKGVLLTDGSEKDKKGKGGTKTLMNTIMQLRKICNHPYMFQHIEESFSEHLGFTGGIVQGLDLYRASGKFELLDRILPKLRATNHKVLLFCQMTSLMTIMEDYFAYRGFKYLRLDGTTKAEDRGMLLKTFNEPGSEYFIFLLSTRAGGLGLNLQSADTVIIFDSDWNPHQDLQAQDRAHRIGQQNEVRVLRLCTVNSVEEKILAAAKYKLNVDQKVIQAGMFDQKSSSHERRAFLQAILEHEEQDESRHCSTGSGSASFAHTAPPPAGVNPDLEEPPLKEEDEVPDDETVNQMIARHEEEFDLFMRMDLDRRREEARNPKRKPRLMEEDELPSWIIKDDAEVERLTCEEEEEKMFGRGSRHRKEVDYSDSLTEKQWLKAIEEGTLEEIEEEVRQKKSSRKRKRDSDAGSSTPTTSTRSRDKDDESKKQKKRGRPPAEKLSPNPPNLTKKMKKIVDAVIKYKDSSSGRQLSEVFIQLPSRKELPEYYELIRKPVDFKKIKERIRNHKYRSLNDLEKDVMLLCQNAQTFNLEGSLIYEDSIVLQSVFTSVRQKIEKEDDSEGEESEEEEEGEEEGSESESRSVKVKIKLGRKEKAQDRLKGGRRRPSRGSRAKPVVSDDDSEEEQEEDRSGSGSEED

For the compound `Cc1ncsc1-c1ccc(CNC(=O)[C@@H]2C[C@@H](O)CN2C(=O)[C@@H](NC(=O)CCN2CCC3(CC2)CC(C(=O)NCc2ccc(CCOc4cc(-c5ccccc5O)nnc4N)cc2)C3)C(C)(C)C)cc1` [Compound 186, N-[[4-(2-[[3-amino-6-(2-hydroxyphenyl)pyridazin-4-yl]oxy]ethyl)phenyl]methyl]-7-(2-[[(2S)-1-[(2S,4R)-4-hydroxy-2-([[4-(4-methyl-1,3-thiazol-5-yl)phenyl]methyl]carbamoyl)pyrrolidin-1-yl]-3,3-dimethyl-1-oxobutan-2-yl]carbamoyl]ethyl)-7-azaspiro[3.5]nonane-2-carboxamide], on HiBiT-BRM, the “BRM HiBit Degradation Maximum (%)” value was “C (“C” indicates maximum degradation <50%)” and the DC50 was over 1000 nM. In addition, on HiBit-BRG1, the DC50 is over 1000 nM and the Dmax was under 50%.
`Cc1ncsc1-c1ccc(CNC(=O)[C@@H]2C[C@@H](O)CN2C(=O)[C@@H](NC(=O)CCN2CC(CC(=O)NCc3ccc(CCOc4cc(-c5ccccc5O)nnc4N)cc3)C2)C(C)(C)C)cc1` [Compound 183, (2S,4R)-1-[(2S)-2-(3-[3-[([[4-(2-[[3-amino-6-(2-hydroxyphenyl)pyridazin-4-yl]oxy]ethyl)phenyl]methyl]carbamoyl)methyl]azetidin-1-yl]propanamido)-3,3-dimethylbutanoyl]-4-hydroxy-N-[[4-(4-methyl-1,3-thiazol-5-yl)phenyl]methyl]pyrrolidine-2-carboxamide]: at HiBiT-BRM, the “BRM HiBit Degradation Maximum (%)” value is listed as “C (“C” indicates maximum degradation <50%)” and the DC50 was over 1000 nM. Besides, at HiBit-BRG1, the DC50 was over 1000 nM and the Dmax is under 50%.
Take `Cc1ncsc1-c1ccc([C@H](C)NC(=O)[C@@H]2C[C@@H](O)CN2C(=O)[C@@H](NC(=O)CCCCCCCCCCCCCC(=O)NCc2ccc(CCOc3cc(-c4ccccc4O)nnc3N)cc2)C(C)C)cc1` [Compound 246, N1-(4-(2-((3-amino-6-(2-hydroxyphenyl)pyridazin-4-yl)oxy)ethyl)benzyl)-N15-((S)-1-((2S,4R)-4-hydroxy-2-(((S)-1-(4-(4-methylthiazol-5-yl)phenyl)ethyl)carbamoyl)pyrrolidin-1-yl)-3-methyl-1-oxobutan-2-yl)pentadecanediamide]: at HiBiT-BRM, the “BRM HiBit Degradation Maximum (%)” value was “A (“A” indicates maximum degradation ≥75%)” and the DC50 is over 10 nM. Besides, at HiBit-BRG1, the DC50 was over 1000 nM and the Dmax is under 50%.
Turning to `Cc1ncsc1-c1ccc([C@H](C)NC(=O)[C@@H]2C[C@@H](O)CN2C(=O)[C@@H](NC(=O)CN2CCC3(CCN(CCC(=O)NCc4ccc(CCOc5cc(-c6ccccc6O)nnc5N)cc4)CC3)CC2)C(C)(C)C)cc1` [Compound 267, (2S,4R)-1-((S)-2-(2-(9-(3-((4-(2-((3-amino-6-(2-hydroxyphenyl)pyridazin-4-yl)oxy)ethyl)benzyl)amino)-3-oxopropyl)-3,9-diazaspiro[5.5]undecan-3-yl)acetamido)-3,3-dimethylbutanoyl)-4-hydroxy-N-((S)-1-(4-(4-methylthiazol-5-yl)phenyl)ethyl)pyrrolidine-2-carboxamide], at HiBiT-BRM, the “BRM HiBit Degradation Maximum (%)” value is “A (“A” indicates maximum degradation ≥75%)” and the DC50 is over 1000 nM. Also, on HiBit-BRG1, the DC50 was over 1000 nM and the Dmax is under 50%.
`Cc1ncsc1-c1ccc(CNC(=O)[C@@H]2C[C@@H](O)CN2C(=O)[C@@H](NC(=O)CCN2CCN(CC(=O)NCc3ccc(CCOc4cc(-c5ccccc5O)nnc4N)cc3)CC2)C(C)(C)C)cc1` [Compound 179, (2S,4R)-1-[(2S)-2-(3-[4-[([[4-(2-[[3-amino-6-(2-hydroxyphenyl)pyridazin-4-yl]oxy]ethyl)phenyl]methyl]carbamoyl)methyl]piperazin-1-yl]propanamido)-3,3-dimethylbutanoyl]-4-hydroxy-N-[[4-(4-methyl-1,3-thiazol-5-yl)phenyl]methyl]pyrrolidine-2-carboxamide]: at HiBiT-BRM, the “BRM HiBit Degradation Maximum (%)” value is listed as “C (“C” indicates maximum degradation <50%)” and the DC50 is over 1000 nM. On HiBit-BRG1, the DC50 is over 1000 nM and the Dmax was under 50%.
Turning to `Cc1nc2cccc(NCCOCCOCCNC(=O)c3ccc(CCOc4cc(-c5ccccc5O)nnc4N)cc3)c2c(=O)n1C1CCC(=O)NC1=O` (stereo not drawn) [Compound 48, 4-(2-[[3-amino-6-(2-hydroxyphenyl)pyridazin-4-yl]oxy]ethyl)-N-[2-[2-(2-[[3-(2,6-dioxopiperidin-3-yl)-2-methyl-4-oxoquinazolin-5-yl]amino]ethoxy)ethoxy]ethyl]benzamide], on HiBiT-BRM, the “BRM HiBit Degradation Maximum (%)” value is listed as “C (“C” indicates maximum degradation <50%)” and the DC50 is over 1000 nM. Further, on HiBit-BRG1, the DC50 is over 1000 nM and the Dmax was under 50%.
Turning to `Cc1ncsc1-c1ccc(CNC(=O)[C@@H]2C[C@@H](O)CN2C(=O)[C@@H](NC(=O)CCN2CCC3(CCN(CCC(=O)NCc4ccc(CCOc5cc(-c6ccccc6O)nnc5N)cc4)CC3)CC2)C(C)(C)C)cc1` [Compound 252, (2S,4R)-1-((S)-2-(3-(9-(3-((4-(2-((3-amino-6-(2-hydroxyphenyl)pyridazin-4-yl)oxy)ethyl)benzyl)amino)-3-oxopropyl)-3,9-diazaspiro[5.5]undecan-3-yl)propanamido)-3,3-dimethylbutanoyl)-4-hydroxy-N-(4-(4-methylthiazol-5-yl)benzyl)pyrrolidine-2-carboxamide], at HiBiT-BRM, the “BRM HiBit Degradation Maximum (%)” value was “C (“C” indicates maximum degradation <50%)” and the DC50 was over 1000 nM. Further, on HiBit-BRG1, the DC50 was over 1000 nM and the Dmax was under 50%.
Consider `Nc1nnc(-c2ccccc2O)cc1OCCc1ccc(C(=O)NCCCCCOc2cccc3c2C(=O)N(C2CCC(=O)NC2=O)C3=O)cc1` (stereo not drawn) [Compound 21, 4-(2-[[3-amino-6-(2-hydroxyphenyl)pyridazin-4-yl]oxy]ethyl)-N-(5-[[2-(2,6-dioxopiperidin-3-yl)-1,3-dioxoisoindol-4-yl]oxy]pentyl)benzamide], for which, at HiBiT-BRM, the “BRM HiBit Degradation Maximum (%)” value is “B (“B” indicates maximum degradation ≥50%)” and the DC50 was over 100 nM. Moreover, at HiBit-BRG1, the DC50 is over 1000 nM and the Dmax was under 50%.
`Nc1nnc(-c2ccccc2O)cc1OCCc1ccc(C(=O)NCCCCCCCC(=O)NCc2ccc(S(=O)(=O)Nc3cccc4c(Cl)c[nH]c34)cc2)cc1` [Compound 25, 8-[[4-(2-[[3-amino-6-(2-hydroxyphenyl)pyridazin-4-yl]oxy]ethyl)phenyl]formamido]-N-([4-[(3-chloro-1H-indol-7-yl)sulfamoyl]phenyl]methyl)octanamide]: at HiBiT-BRM, the “BRM HiBit Degradation Maximum (%)” value is reported as “C (“C” indicates maximum degradation <50%)” and the DC50 was over 1000 nM. Besides, at HiBit-BRG1, the DC50 was over 1000 nM and the Dmax was under 50%.
As for `Cc1ncsc1-c1ccc(CNC(=O)[C@@H]2C[C@@H](O)CN2C(=O)[C@@H](NC(=O)CCNCc2ccc(CCOc3cc(-c4ccccc4O)nnc3N)cc2)C(C)(C)C)cc1` [Compound 187, (2S,4R)-1-((S)-2-(3-((4-(2-((3-amino-6-(2-hydroxyphenyl)pyridazin-4-yl)oxy)ethyl)benzyl)amino)propanamido)-3,3-dimethylbutanoyl)-4-hydroxy-N-(4-(4-methylthiazol-5-yl)benzyl)pyrrolidine-2-carboxamide], at HiBiT-BRM, the “BRM HiBit Degradation Maximum (%)” value is listed as “C (“C” indicates maximum degradation <50%)” and the DC50 was over 1000 nM. Moreover, on HiBit-BRG1, the DC50 is over 1000 nM and the Dmax was under 50%.
For `Cc1ncsc1-c1ccc(CNC(=O)[C@@H]2C[C@@H](O)CN2C(=O)[C@@H](NC(=O)CCN2CC(OC3CCN(C(=O)c4ccc(CCOc5cc(-c6ccccc6O)nnc5N)cc4)CC3)C2)C(C)(C)C)cc1` [Compound 238, (2S,4R)-1-((S)-2-(3-(3-((1-(4-(2-((3-amino-6-(2-hydroxyphenyl)pyridazin-4-yl)oxy)ethyl)benzoyl)piperidin-4-yl)oxy)azetidin-1-yl)propanamido)-3,3-dimethylbutanoyl)-4-hydroxy-N-(4-(4-methylthiazol-5-yl)benzyl)pyrrolidine-2-carboxamide], at HiBiT-BRM, the “BRM HiBit Degradation Maximum (%)” value is on record as “C (“C” indicates maximum degradation <50%)” and the DC50 is over 1000 nM. Besides, on HiBit-BRG1, the DC50 was over 1000 nM and the Dmax is under 50%.
In the case of `Cc1ncsc1-c1ccc(CNC(=O)[C@@H]2C[C@@H](O)CN2C(=O)[C@@H](NC(=O)CCCCCCCCCCCCCC(=O)NCc2ccc(CCOc3cc(-c4ccccc4O)nnc3N)cc2)C(C)C)cc1` [Compound 169, N1-(4-(2-((3-amino-6-(2-hydroxyphenyl)pyridazin-4-yl)oxy)ethyl)benzyl)-N15-((S)-1-((2S,4R)-4-hydroxy-2-((4-(4-methylthiazol-5-yl)benzyl)carbamoyl)pyrrolidin-1-yl)-3-methyl-1-oxobutan-2-yl)pentadecanediamide], on HiBiT-BRM, the “BRM HiBit Degradation Maximum (%)” value is reported as “B (“B” indicates maximum degradation ≥50%)” and the DC50 is over 100 nM. For the same compound, at HiBit-BRG1, the DC50 is over 1000 nM and the Dmax is under 50%.
